This passage reports IC50 results from ChEMBL document CHEMBL1155697, “Chapecoderins A-C, new labdane-derived diterpenoids from Echinodorus macrophyllus” (J Nat Prod, 2000).

≈ marks a conversion by molar mass, not a printed value. Some results are limits rather than exact numbers.

The test system of the experiment is L1210. Briefly: Cytotoxicity against mouse L1210 cells. It is filed as functional, cell-based.
`CC(=O)[C@@H]1C[C@H]2C(C)(C)CCC[C@]2(C)[C@@]1(O)CCC1=CCOC1=O` [CHAPECODERIN B] displayed an IC50 of 7.2 µg/mL (≈ 21.5 µM).
To `CC(=O)CC[C@H]1C(C)(C)CCC[C@]1(C)C(=O)CCC1=CCOC1=O` [CHAPECODERIN A] belongs more than 10 µg/mL.
To `CC(=O)C1=C(CCC2=CCOC2=O)[C@@]2(C)CCCC(C)(C)[C@@H]2C1` [CHAPECODERIN C] belongs 6 µg/mL (≈ 19 µM).
